In US4100346A, “Certain 7(o-amino-methyl- or methylaminomethylphenyl- or cyclohexadienyl- or thienylacetamide)-3[1-carboxymethyl-(or ethyl- or propyl-)-tetrazol-5-ylthiomethyl]-3-cephem-4-carboxylic acids” (Bristol-Myers Company, priority 1976, dated 1978):
In brackets after ≈: the same amount, converted by molar mass. Like-named read-outs stand apart in the source and are kept apart here.

Key:
Serratia marcescens = assay: Growth inhibitory activity, antibiotic dilution technique; settings: read-out: Minimum inhibitory concentration
Pseudomonas aeruginosa = assay: as above; settings: read-out: Minimum inhibitory concentration
Erwinia sp. = assay: as above; settings: read-out: Minimum inhibitory concentration
Proteus rettgeri [1] = assay: Effect of inoculum size on susceptibility of Enterobacteriaceae; settings: Providencia rettgeri
Klebsiella pneumoniae = assay: Intramuscular treatment of systemically infected mice; type: in vivo; settings: im, 3.5 h, read-out: PD50 /treatment
Excerpt: (§1) Treatment of Systemically Infected Mice. The procedures were identical with those published previously [Leitner et al., BL-S640, a Cephalosporin With a Broad Spectrum of Antibacterial Activity: Bioavailability and Therapeutic Properties in Rodents, Antimicrob. Agents Chemother. 7:306-310, (1975)], except that:
(§2) (a) the hog gastric mucin used in infections with Staphylococcus aureus No. 2 was purchased from American Laboratories, Inc., Omaha, Neb. (lot No. 154163) and b) that the medium used to suspend all other organisms contained 3% (rather than 4%) hog gastric mucin (type 1701W, Wilson Laboratories, Inc., Park Forest South, Ill.).
(§3) *Animals were treated twice; 1 and 3.5 hours after infection.

Proteus mirabilis = assay: as above; type: in vivo; settings: im, 3.5 h, read-out: PD50 /treatment
Excerpt: as §1, §2, §3

Escherichia coli = assay: as above; type: in vivo; settings: im, 3.5 h, read-out: PD50 /treatment
Excerpt: as §1, §2, §3

Providencia stuartii [2] = assay: as above; type: in vivo; settings: im, 3.5 h, read-out: PD50 /treatment
Excerpt: as §1, §2, §3

Proteus vulgaris = assay: as above; type: in vivo; settings: im, 3.5 h, read-out: PD50 /treatment
Excerpt: as §1, §2, §3

Citrobacter sp. [3] = assay: as above; type: in vivo; settings: im, Citrobacter sp. strain 1, challenge 5×10^6 -2×10^7, treated 1 and 3.5 hours after infection, read-out: PD50 /treatment
Excerpt: as §1, §2, §3

Proteus rettgeri [4] = assay: as above; type: in vivo; settings: Providencia rettgeri, im, Proteus rettgeri strain 4, challenge 2×10^6 -3×10^6, treated 1 and 3.5 hours after infection, read-out: PD50 /treatment
Excerpt: as §1, §2, §3

Proteus morganii = assay: as above; type: in vivo; settings: Morganella morganii, im, 3.5 h, read-out: PD50 /treatment
Excerpt: as §1, §2, §3

Providencia stuartii [5] = assay: Growth inhibitory activity, antibiotic dilution technique
Citrobacter sp. [6] = assay: as above
Alcaligenes sp. = assay: as above
Vibrio cholerae = assay: as above; settings: read-out: Minimum inhibitory concentration
Proteus rettgeri [7] = assay: as above; settings: for inhibition at 16 µg/mL: Providencia rettgeri, read-out: percent of strains inhibited
[8] = test system: β-lactamase Class IV Type a, Klebsiella pneumoniae 53; type: biochemical
Protocol: (§4) Miscellaneous. Methods for determining bactericidal activity and susceptibility to cell-free β-lactamase were those previously used; Leitner et al., BL-S640, A Cephalosporin With a Broad Spectrum of Antibacterial Activity: Properties in vitro, Antimicrob. Agents Chemother.
(§5) Susceptibility to β-lactamase. Susceptibility to enzymic hydrolysis was assessed by determining relative rates of hydrolysis by cell-free preparations of various β-lactamases (Table 6).

[9] = biological target: β-lactamase Class I Type b, Escherichia coli 719 (Escherichia coli, UniProt P00811); type: biochemical
Chain of β-lactamase Class I Type b, Escherichia coli 719 (P00811 20-377): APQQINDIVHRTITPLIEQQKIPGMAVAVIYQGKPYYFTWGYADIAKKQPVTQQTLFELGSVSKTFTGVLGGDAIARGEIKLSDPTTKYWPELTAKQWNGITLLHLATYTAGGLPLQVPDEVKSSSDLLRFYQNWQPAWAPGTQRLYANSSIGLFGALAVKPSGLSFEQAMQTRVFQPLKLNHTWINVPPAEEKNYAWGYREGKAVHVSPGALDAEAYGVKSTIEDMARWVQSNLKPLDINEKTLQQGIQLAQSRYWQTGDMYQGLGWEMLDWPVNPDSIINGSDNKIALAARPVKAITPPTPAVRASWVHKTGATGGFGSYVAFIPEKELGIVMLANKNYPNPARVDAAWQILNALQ
Protocol: as §4, §5

[10] = test system: β-lactamase Class II Type a, Proteus mirabilis 1266; type: biochemical
Protocol: as §4, §5

[11] = test system: β-lactamase Class IV Type b, Klebsiella pneumoniae 1169; type: biochemical
Protocol: as §4, §5

[12] = biological target: T1, β-lactamase Class III Type a, Escherichia coli TEM (Escherichia coli, UniProt P62593); type: biochemical
T1 construct: cell-free preparations of various β-lactamases; endogenous in cells; host or cells: Escherichia coli strain TEM
T1 sequence (P62593 24-286 limits assumed): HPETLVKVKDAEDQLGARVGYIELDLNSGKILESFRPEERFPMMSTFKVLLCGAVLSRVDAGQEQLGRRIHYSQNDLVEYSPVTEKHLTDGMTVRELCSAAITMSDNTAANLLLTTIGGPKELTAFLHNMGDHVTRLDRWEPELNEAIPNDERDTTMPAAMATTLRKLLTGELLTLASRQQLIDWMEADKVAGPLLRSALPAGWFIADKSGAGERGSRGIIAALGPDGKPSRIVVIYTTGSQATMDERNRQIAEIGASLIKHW
Protocol: as §4, §5

[13] = biological target: β-lactamase Class I Type a, Enterobacter cloacae 214 (Enterobacter cloacae, UniProt P05364); type: biochemical
Chain of β-lactamase Class I Type a, Enterobacter cloacae 214 (P05364 21-381): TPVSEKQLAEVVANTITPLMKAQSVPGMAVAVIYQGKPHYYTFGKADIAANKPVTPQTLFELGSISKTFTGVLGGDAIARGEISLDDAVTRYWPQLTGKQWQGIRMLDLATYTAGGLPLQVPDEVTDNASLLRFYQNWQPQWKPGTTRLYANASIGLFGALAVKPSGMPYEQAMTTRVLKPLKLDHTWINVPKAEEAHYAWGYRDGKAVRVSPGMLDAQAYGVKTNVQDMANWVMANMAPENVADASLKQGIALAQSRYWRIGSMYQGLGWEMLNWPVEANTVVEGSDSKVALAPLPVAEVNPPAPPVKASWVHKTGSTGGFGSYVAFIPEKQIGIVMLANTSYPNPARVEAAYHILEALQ
Protocol: as §4, §5

in vitro = in vitro ADME, human; settings: read-out: protein bound (converted)
[14] = read-out: Minimum Inhibitory Concentration, Proteus rettgeri strain 1, A, Inoculum of 10^2 organisms
[15] = read-out: Minimum Inhibitory Concentration, Proteus rettgeri strain 1, B, Inoculum of 10^6 organisms
[16] = read-out: Minimum Inhibitory Concentration, Proteus rettgeri strain 2, A, Inoculum of 10^2 organisms
[17] = read-out: Minimum Inhibitory Concentration, Proteus rettgeri strain 2, B, Inoculum of 10^6 organisms
[18] = read-out: Minimum Inhibitory Concentration, Proteus rettgeri strain 3, A, Inoculum of 10^2 organisms
[19] = read-out: Minimum Inhibitory Concentration, Proteus rettgeri strain 3, B, Inoculum of 10^6 organisms
[20] = Klebsiella pneumoniae strain 1, challenge 4×10^4 -5×10^4, treated 1 and 3.5 hours after infection
[21] = Klebsiella pneumoniae strain 7, challenge 9×10^2 -1×10^3, treated 1 and 3.5 hours after infection
[22] = Proteus mirabilis strain 1, challenge 7×10^6 -9×10^6, treated 1 and 3.5 hours after infection
[23] = Proteus mirabilis strain 5, challenge 9×10^5 -3×10^6, treated 1 and 3.5 hours after infection
[24] = Proteus mirabilis strain 8, challenge 6×10^5 -4×10^6, treated 1 and 3.5 hours after infection
[25] = Escherichia coli strain 1, challenge 2×10^5 organisms, treated 1 and 3.5 hours after infection
[26] = Escherichia coli strain 8, challenge 6×10^5 -4×10^6, treated 1 and 3.5 hours after infection
[27] = Escherichia coli strain 9, challenge 7×10^3 -2×10^4, treated 1 and 3.5 hours after infection
[28] = Providencia stuartii strain 2, challenge 1×10^6 ×5×10^6, treated 1 and 3.5 hours after infection
[29] = Providencia stuartii strain 3, challenge 2×10^7, treated 1 and 3.5 hours after infection
[30] = Proteus vulgaris strain 1, challenge 1×10^6 -2×10^6, treated 1 and 3.5 hours after infection
[31] = Proteus vulgaris strain 3, challenge 4×10^5, treated 1 and 3.5 hours after infection
[32] = Proteus morganii strain 1, challenge 1×10^5 -4×10^5, treated 1 and 3.5 hours after infection
[33] = Proteus morganii strain 2, challenge 2×10^6 -3×10^6, treated 1 and 3.5 hours after infection
[34] = read-out: Minimum inhibitory concentration
[35] = read-out: Minimum inhibitory concentration, Citrobacter sp., 1 strain
[36] = read-out: Minimum inhibitory concentration, Alcaligenes sp., 2 strains, geometric mean when applicable
[37] = read-out: Minimum inhibitory concentration, Alcaligenes sp., 4 strains, geometric mean when applicable
[38] = read-out: Minimum inhibitory concentration, Alcaligenes sp., 5 strains, geometric mean when applicable
[39] = read-out: Minimum inhibitory concentration, Citrobacter sp., 4 strains, geometric mean when applicable

Compound	MIC (Serratia marcescens) [µg/mL]	MIC (Pseudomonas aeruginosa) [µg/mL]	MIC (Erwinia sp.) [µg/mL]	MIC (Proteus rettgeri [1]; [14]) [µg/mL]	MIC (Proteus rettgeri [1]; [15]) [µg/mL]	MIC (Proteus rettgeri [1]; [16]) [µg/mL]	MIC (Proteus rettgeri [1]; [17]) [µg/mL]	MIC (Proteus rettgeri [1]; [18]) [µg/mL]	MIC (Proteus rettgeri [1]; [19]) [µg/mL]	ED50 (Klebsiella pneumoniae; [20]) [mg/kg]	ED50 (Klebsiella pneumoniae; [21]) [mg/kg]	ED50 (Proteus mirabilis; [22]) [mg/kg]	ED50 (Proteus mirabilis; [23]) [mg/kg]	ED50 (Proteus mirabilis; [24]) [mg/kg]	ED50 (Escherichia coli; [25]) [mg/kg]	ED50 (Escherichia coli; [26]) [mg/kg]	ED50 (Escherichia coli; [27]) [mg/kg]	ED50 (Providencia stuartii [2]; [28]) [mg/kg]	ED50 (Providencia stuartii [2]; [29]) [mg/kg]	ED50 (Proteus vulgaris; [30]) [mg/kg]	also measured
Cc1nnc(SCC2=C(C(=O)O)N3C(=O)[C@@H](NC(=O)Cn4cnnn4)[C@H]3SC2)s1 [Cefazolin]	> 125	> 125	1.5 (≈ 3.3 µM)	0.5 (≈ 1.1 µM)	> 250	0.25 (≈ 0.55 µM)	> 250	2 (≈ 4.4 µM)	> 250	16	94	16	6.2	6.5	1.9	4.9	5.3	50	70	11	ED50 (Proteus vulgaris; [31]): 8 mg/kg; ED50 (Citrobacter sp. [3]): 110 mg/kg; ED50 (Proteus rettgeri [4]): 9.5 mg/kg; ED50 (Proteus morganii; [32]): 62 mg/kg; ED50 (Proteus morganii; [33]): 140 mg/kg; inhibition at 16 µg/mL (Providencia stuartii [5]; Providencia stuartii, read-out: percent of strains inhibited): 23%; MIC (Citrobacter sp. [6]; [34]): 75 µg/mL (≈ 165 µM); MIC (Citrobacter sp. [6]; [35]): > 125 µg/mL; MIC (Alcaligenes sp.; [36]): > 125 µg/mL; MIC (Alcaligenes sp.; [37]): > 105 µg/mL; MIC (Alcaligenes sp.; [38]): 4.6 µg/mL (≈ 10.1 µM); MIC (Vibrio cholerae): 4 µg/mL (≈ 8.8 µM); inhibition at 16 µg/mL (Proteus rettgeri [7]): 44%
CC(=O)OCC1=C(C(=O)O)N2C(=O)[C@@H](NC(=O)Cc3cccs3)[C@H]2SC1 [Cephalothin]	> 125	> 125	5.3 (≈ 13.4 µM)	0.25 (≈ 0.631 µM)	250 (≈ 631 µM)	0.25 (≈ 0.631 µM)	> 250	32 (≈ 80.7 µM)	> 250	94	> 380	41	11	14	42	97	180	> 380	160	11	Relative Rate of Hydrolysis (benzylpenicillin = 100) [8]: 8; Relative Rate of Hydrolysis (benzylpenicillin = 100) [9]: 480; Relative Rate of Hydrolysis (benzylpenicillin = 100) [10]: < 1; Relative Rate of Hydrolysis (benzylpenicillin = 100) [11]: 43; Relative Rate of Hydrolysis (benzylpenicillin = 100) [12]: 9; Relative Rate of Hydrolysis (benzylpenicillin = 100) [13]: 2100; ED50 (Proteus vulgaris; [31]): 17 mg/kg; ED50 (Citrobacter sp. [3]): > 340 mg/kg; ED50 (Proteus rettgeri [4]): 140 mg/kg; ED50 (Proteus morganii; [32]): > 350 mg/kg; ED50 (Proteus morganii; [33]): > 400 mg/kg; percent of strains inhibited (Providencia stuartii [5]): negligible; MIC (Citrobacter sp. [6]; [35]): > 125 µg/mL; MIC (Citrobacter sp. [6]; [39]): 63 µg/mL (≈ 159 µM); MIC (Alcaligenes sp.; [36]): > 125 µg/mL; MIC (Alcaligenes sp.; [37]): > 105 µg/mL; MIC (Alcaligenes sp.; [38]): 1.3 µg/mL (≈ 3.28 µM); fraction unbound (in vitro; human, serum): 0.33; MIC (Vibrio cholerae): 1 µg/mL (≈ 2.52 µM); percent of strains inhibited (Proteus rettgeri [7]): negligible
O=C(Cc1cccs1)N[C@@H]1C(=O)N2C(C(=O)[O-])=C(C[n+]3ccccc3)CS[C@H]12 [Cephaloridine]	> 125	> 125	2 (≈ 4.81 µM)	4 (≈ 9.63 µM)	250 (≈ 602 µM)	0.25 (≈ 0.602 µM)	> 250	16 (≈ 38.5 µM)	> 250	8	41	19	4	5.5	2.6	2.2	13	180	150	6.4	Relative Rate of Hydrolysis (benzylpenicillin = 100) [8]: 100; Relative Rate of Hydrolysis (benzylpenicillin = 100) [9]: 370; Relative Rate of Hydrolysis (benzylpenicillin = 100) [10]: 2; Relative Rate of Hydrolysis (benzylpenicillin = 100) [11]: 50; Relative Rate of Hydrolysis (benzylpenicillin = 100) [12]: 93; Relative Rate of Hydrolysis (benzylpenicillin = 100) [13]: 7900; ED50 (Proteus vulgaris; [31]): 10 mg/kg; ED50 (Citrobacter sp. [3]): 36 mg/kg; ED50 (Proteus rettgeri [4]): 66 mg/kg; ED50 (Proteus morganii; [32]): 180 mg/kg; ED50 (Proteus morganii; [33]): 230 mg/kg; percent of strains inhibited (Providencia stuartii [5]): negligible; MIC (Citrobacter sp. [6]; [35]): > 125 µg/mL; MIC (Citrobacter sp. [6]; [39]): > 125 µg/mL; MIC (Alcaligenes sp.; [36]): > 125 µg/mL; MIC (Alcaligenes sp.; [37]): > 125 µg/mL; MIC (Alcaligenes sp.; [38]): 6.1 µg/mL (≈ 14.7 µM); fraction unbound (in vitro; human, serum): 0.7; MIC (Vibrio cholerae): 16 µg/mL (≈ 38.5 µM); percent of strains inhibited (Proteus rettgeri [7]): negligible
NCc1ccccc1CC(=O)N[C@@H]1C(=O)N2C(C(=O)O)=C(CSc3nnnn3CC(=O)O)CS[C@H]12 [Example 1]	> 125	> 125	0.66 (≈ 1.27 µM)	0.13 (≈ 0.25 µM)	125 (≈ 241 µM)	0.13 (≈ 0.25 µM)	63 (≈ 121 µM)	0.25 (≈ 0.481 µM)	> 250	2	22	1.4	0.62	0.59	0.37	1.5	2.2	5.9	8	1.8	Relative Rate of Hydrolysis (benzylpenicillin = 100) [8]: 6; Relative Rate of Hydrolysis (benzylpenicillin = 100) [9]: 190; Relative Rate of Hydrolysis (benzylpenicillin = 100) [10]: < 1; Relative Rate of Hydrolysis (benzylpenicillin = 100) [11]: 30; Relative Rate of Hydrolysis (benzylpenicillin = 100) [12]: 2; Relative Rate of Hydrolysis (benzylpenicillin = 100) [13]: 1100; ED50 (Proteus vulgaris; [31]): 2.5 mg/kg; ED50 (Citrobacter sp. [3]): 3.5 mg/kg; ED50 (Proteus rettgeri [4]): 2.4 mg/kg; ED50 (Proteus morganii; [32]): 19 mg/kg; ED50 (Proteus morganii; [33]): 39 mg/kg; percent of strains inhibited (Providencia stuartii [5]; Providencia stuartii strains, at a concentration of 16 mcg./ml.): Ninety-eight; MIC (Citrobacter sp. [6]; [34]): 1 µg/mL (≈ 1.92 µM); MIC (Citrobacter sp. [6]; [35]): 125 µg/mL (≈ 241 µM); MIC (Alcaligenes sp.; [36]): 63 µg/mL (≈ 121 µM); MIC (Alcaligenes sp.; [37]): > 125 µg/mL; MIC (Alcaligenes sp.; [38]): 2.6 µg/mL (≈ 5 µM); fraction unbound (in vitro; In 95% human serum): 0.33; MIC (Vibrio cholerae): 4 µg/mL (≈ 7.7 µM); inhibition at 16 µg/mL (Proteus rettgeri [7]): 78%
